US20230044979A1, “ANIMAL CELL CULTURING METHOD” (AJINOMOTO CO., INC., priority 2020, published 2023)

What was measured:
[1] = test system: CHO cells modified to produce a monoclonal antibody; assay: Effect of addition of L-cysteine derivatives to basal medium on proliferation of CHO cells; type: cell-based, Chinese hamster; settings: for use as an alternative for L-cysteine in the basal medium: 1.3 mM in basal medium; for proliferation of cells (viable cell count): 1.3 mM in basal medium otherwise without L-cysteine, day 7 of culture, FIG. 1
Method: In this Example, an effect of addition of L-cysteine derivatives to a basal medium on proliferation of CHO cells was evaluated. As the L-cysteine derivatives, (2RS,4R)-2-methyl-2,4-thiazolidinedicarboxylic acid 2-ethyl ester (hereinafter, also referred to as “Compound 1”) and (2RS,4R)-2-methyl-2,4-thiazolidinedicarboxylic acid (hereinafter, also referred to as “Compound 2”) were used. As the CHO cells, CHO cells modified to produce a monoclonal antibody were used.
CELLiST (registered trademark) Basal media (Ajinomoto Co., Ltd.: BASAL3) without L-cysteine was prepared, to obtain a culture medium without addition of L-cysteine. The culture medium without addition of L-cysteine was added with L-cysteine, Compound 1, or Compound 2, to prepare a culture medium containing 1.3 mM L-cysteine, 1.3 mM Compound 1, or 1.3 mM Compound 2. Each culture medium was added with LR3-IGF-1 (SIGMA-ALDRICH: I1271-1MG, final concentration of 50 μg/mL) and L-Glutamine (Thermo Fisher SCIENTIFIC: 25030081, final concentration of 6 mM), to prepare a basal medium.
A 3 mL-aliquot of a CHO cell suspension adjusted to 3×10^5 cells/mL using the prepared basal medium was seeded into a 6 well plate (CORNING: 3471), and cultured for 11 days. The culture was carried out with n=3 for all experimental groups. The culture temperature was 37° C. and the agitation speed was 110 rpm. A cell culture broth was sampled on days 7 and 11 from the start of the culture, and the viable cell count was measured using a viable/dead cells autoanalyzer Vi-CELL™ XR (Beckman Coulter).

[2] = test system: CHO cells modified to produce a monoclonal antibody; assay: Effect of addition of L-cysteine derivatives to feed medium on proliferation of CHO cells and antibody production (1); type: cell-based, Chinese hamster; settings: for antibody production amount: 14.5, 29 or 58 mM in feed medium, fed on days 4, 7, 9, 11, 14 days culture, FIG. 3
Method: In this Example, an effect of addition of L-cysteine derivatives to a feed medium on proliferation of CHO cells and antibody production was evaluated. As the L-cysteine derivatives, Compounds 1 and 2 were used. As the CHO cells, CHO cells modified to produce a monoclonal antibody were used.
CELLiST (registered trademark) Basal media (Ajinomoto Co., Ltd.: BASAL3; containing 1.3 mM L-cysteine) was added with LR3-IGF-1 (SIGMA-ALDRICH: I1271-1MG, final concentration of 50 μg/mL) and L-Glutamine (Thermo Fisher SCIENTIFIC: 25030081, final concentration of 6 mM), to prepare a basal medium.
Feed media (9 kinds in total) each containing 82 g/L Cellvento (registered trademark) Feed-210 (Merck: 1.02488.0005), 70 g/L glucose (Wako Pure Chemical Industries, Ltd.: 043-31163), and L-cysteine, Compound 1, or Compound 2 each at 14.5 mM, 29 mM, or 58 mM were prepared. In addition, a feed medium without addition of L-cysteine, which only contained 82 g/L Cellvento (registered trademark) Feed-210 and 70 g/L glucose, was prepared. Separately, a tyrosine concentrate (L-tyrosine disodium salt dihydrate (Merck: 122666-87-9) 149.64 g/L, pH 11.3) was prepared.
A 30 mL-aliquot of a CHO cell suspension adjusted to 3×10^5 cells/mL using the prepared basal medium was seeded into 125 mL-volume flasks (CORNING: 431143), and cultured for 14 days. The culture was carried out with n=2 for all experimental groups. The culture temperature was 37° C. and the agitation speed was 110 rpm. A 1.8 mL-aliquot of each of the prepared feed media and a 60 μL-aliquot of the tyrosine concentrate were added on days 4, 7, 9, and 11 from the start of the culture. A cell culture broth was sampled on days 4, 7, 9, 11, and 14 from the start of the culture, and the viable cell count was measured using a viable/dead cells autoanalyzer Vi-CELL™ XR (Beckman Coulter), and the antibody production amount was measured using Octet QK (FORTEBIO).

[3] = Stability of L-cysteine derivatives in buffer solution (crystal precipitation by visual observation); type: physicochemical; settings: 58 mM in PBS buffer pH 7.0 to 7.2; for crystal precipitation, Days 0 / crystal precipitation, Days 3 / crystal precipitation, Days 7 / crystal precipitation, Days 14 / crystal precipitation, Days 21 / crystal precipitation, Days 24: stored at 5° C. in the dark; for crystal precipitation, Days 0: day 0; for crystal precipitation, Days 3: day 3; for crystal precipitation, Days 7: day 7; for crystal precipitation, Days 14: day 14; for crystal precipitation, Days 21: day 21; for crystal precipitation, Days 24: day 24
Method: In this Example, the stability of L-cysteine derivatives in a buffer solution was evaluated.
In the table, “+” to “++++” indicate that crystal precipitation was observed, and the higher the number of “+”, the greater the degree of precipitation.

[4] = Stability of L-cysteine derivatives in feed medium (crystal precipitation by visual observation); type: physicochemical; settings: for crystal precipitation, Days 0 / crystal precipitation, Days 1 / crystal precipitation, Days 7 / crystal precipitation, Days 22 / crystal precipitation, Days 30: stored at 5° C. in the dark; for crystal precipitation, Days 0: day 0; for crystal precipitation, Days 1: day 1; for crystal precipitation, Days 7: day 7; for crystal precipitation, Days 22: day 22; for crystal precipitation, Days 30: day 30
Method: In this Example, the stability of L-cysteine derivatives in a feed medium was evaluated. As the L-cysteine derivatives, Compounds 1 and 2 were used.
A feed medium containing 82 g/L Cellvento (registered trademark) Feed-210 (Merck: 1.02488.0005), 70 g/L glucose (Wako Pure Chemical Industries, Ltd.: 043-31163), and 58 mM L-cysteine, 58 mM Compound 1, or 58 mM Compound 2, and a feed medium without addition of L-cysteine, which only contained 82 g/L Cellvento (registered trademark) Feed-210 and 70 g/L glucose were prepared at pH 5.2 to 5.6, which are described in the instruction of Feed-210, and at pH 7.0, which is a neutral pH condition used for usual cultivation, to obtain 8 kinds of feed media in total. All of the feed media were prepared as transparent solutions.
After each of the feed media was stored at 5° C. in the dark, crystal precipitation was confirmed by visual observation. […] In the table, “+” to “++++” indicate that crystal precipitation was observed, and the higher the number of “+”, the greater the degree of precipitation. Under the addition condition, significant precipitation was observed from one week after the start of storage. Under the condition of adding Compound 2, precipitation was observed from 22 days after the start of storage.

[5] = 58 mM in feed medium pH 5.2 to 5.6
[6] = 58 mM in feed medium, 5° C. in the dark

relative stability compared with L-cysteine ([3]; 5° C. in the dark)	crystal precipitation, Days 0 [3]	crystal precipitation, Days 3 [3]	crystal precipitation, Days 7 [3]	crystal precipitation, Days 14 [3]	crystal precipitation, Days 21 [3]	crystal precipitation, Days 24 [3]	crystal precipitation, Days 0 [4, 5]	crystal precipitation, Days 1 [4, 5]	crystal precipitation, Days 7 [4, 5]	crystal precipitation, Days 22 [4, 5]	crystal precipitation, Days 30 [4, 5]	crystal precipitation, Days 0 ([4]; 58 mM in feed medium pH 7)	crystal precipitation, Days 1 ([4]; 58 mM in feed medium pH 7)	crystal precipitation, Days 7 ([4]; 58 mM in feed medium pH 7)	crystal precipitation, Days 22 ([4]; 58 mM in feed medium pH 7)	crystal precipitation, Days 30 ([4]; 58 mM in feed medium pH 7)	SMILES	use as an alternative for L-cysteine in the basal medium [1]	proliferation of cells (viable cell count) [1]	antibody production amount [2]	further results
more stable than L-cysteine	−	−	−	−	−	−	−	−	−	+	+++	−	−	−	++	+++	CC1(C(=O)O)N[C@H](C(=O)O)CS1 (mixture of isomers) [Compound 2, (2RS,4R)-2-methyl-2,4-thiazolidinedicarboxylic acid]	able to be used as an alternative for L-cysteine	almost equivalent to that of the experimental group using L-cysteine	almost equivalent to that of the experimental group of L-cysteine	precipitation observed from (after the start of storage) [4, 6]: 22 days
more stable than L-cysteine	−	−	−	−	−	−	−	−	−	−	−	−	−	−	−	−	CCOC(=O)C1(C)N[C@H](C(=O)O)CS1 (mixture of isomers) [Compound 1, (2RS,4R)-2-methyl-2,4-thiazolidinedicarboxylic acid 2-ethyl ester]	unable to substitute the whole of L-cysteine in the basal medium	no proliferation of cells was observed	almost equivalent to that of the experimental group of L-cysteine	use as an alternative for L-cysteine in the feed medium ([2]; in feed medium, basal medium containing 1.3 mM L-cysteine): able to be used as an alternative for L-cysteine in the feed medium; relative stability in the culture medium [4, 6]: more stable than Compound 2; crystal precipitation on storage, in words ([4]; 58 mM in feed medium, 5° C. in the dark, up to 30 days after the start of storage): no crystal precipitation was observed

SMILES	relative stability compared with L-cysteine ([3]; 5° C. in the dark)	crystal precipitation, Days 0 [3]	crystal precipitation, Days 3 [3]	crystal precipitation, Days 7 [3]	crystal precipitation, Days 14 [3]	crystal precipitation, Days 21 [3]	crystal precipitation, Days 24 [3]	crystal precipitation, Days 0 [4, 5]	crystal precipitation, Days 1 [4, 5]	crystal precipitation, Days 7 [4, 5]	crystal precipitation, Days 22 [4, 5]	crystal precipitation, Days 30 [4, 5]	crystal precipitation, Days 0 ([4]; 58 mM in feed medium pH 7)	crystal precipitation, Days 1 ([4]; 58 mM in feed medium pH 7)	crystal precipitation, Days 7 ([4]; 58 mM in feed medium pH 7)	crystal precipitation, Days 22 ([4]; 58 mM in feed medium pH 7)	crystal precipitation, Days 30 ([4]; 58 mM in feed medium pH 7)	use as an alternative for L-cysteine in the basal medium [1]	proliferation of cells (viable cell count) [1]	antibody production amount [2]	further results
Cl.N[C@@H](CS)C(=O)O.O [L-cysteine, L-cysteine hydrochloride monohydrate]		−	++	+++	+++	+++	+++	−	−	+++	+++	+++	−	−	+++	+++	+++		Proliferation of cells was observed		significant precipitation observed from (after the start of storage) ([3]; 5° C. in the dark): 3 days
